Tests used:
Test in all cases: Uptake of Pc 4 in mixtures of BM and cell lines
Format in all cases: cell-based, murine
BC3A cells = details: for Pc 4 content in cell line: BM/BC3A
Procedure: (§1) In mixing experiments, aliquots of Ly-5.2 BM and cell lines samples were mixed at different ratios. The combined cell concentration of each sample was 1.5×10^7 cells/mL. […] The cell lines were stained with anti-Ly-5.1^FITC. This treatment allowed clear resolution of the relatively small ABE-8.1/2 and BC3A cells from the bone marrow granulocytes. Immediately prior to the analyses, propidium iodide (PI, 0.5 μg/mL) was added to the samples to allow exclusion of dead cells (PI^+) from the analyses. The samples were analyzed in a FACStar^PLUS (BD) that was equipped with an argon ion laser tuned to 488 nm (200 mW) and a dye laser tuned to 610 nm (300 mW). FITC, PE, PI and Pc 4 fluorescence emissions were collected through 530/30, 575/42, 660/10, 670/10 nm band pass filters, respectively.

BM progenitors (c-kit^+) = system: BM progenitors (c-kit^+)
Procedure: as §1

L1210 cells = system: L1210 cells
Procedure: as §1

WEHI-3 cells = system: WEHI-3 cells
Procedure: as §1

P815 cells = system: P815 cells
Procedure: as §1

[1] = versus 1.5×10^7 cells/mL without BM

SMILES: CN(C)CCC[Si](C)(C)O[Si]1(O)n2c3c4ccccc4c2N=C2N=C(N=c4c5ccccc5c(n41)=NC1=NC(=N3)c3ccccc31)c1ccccc12 (centres unmarked) [Pc 4, hydroxysiloxy-dimethylpropyl-N-dimethyl silicon phthalocyanine]
- Pc 4 content in cell line (BC3A cells; BM fraction 0.50): 104 Mean fluorescence/cell
- Pc 4 content in cell line (BC3A cells; BM fraction 0.70): 26 Mean fluorescence/cell
- Pc 4 content in cell line (BC3A cells; BM fraction 0.80): 138 Mean fluorescence/cell
- Pc 4 content in cell line (BC3A cells; BM fraction 0.90): 153 Mean fluorescence/cell
- Pc 4 content in cell line (BC3A cells; BM fraction 0.95): 166 Mean fluorescence/cell
- Pc 4 uptake in mixtures versus cell line alone (BC3A cells; [1]): contained more Pc 4
- Pc 4 content in c-kit^+ BM (BM progenitors (c-kit^+); BM/ABE-8.1/2, BM fraction 0.50): 48 Mean fluorescence/cell
- Pc 4 content in c-kit^+ BM (BM progenitors (c-kit^+); BM/ABE-8.1/2, BM fraction 0.70): 52 Mean fluorescence/cell
- Pc 4 content in c-kit^+ BM (BM progenitors (c-kit^+); BM/ABE-8.1/2, BM fraction 0.80): 49 Mean fluorescence/cell
- Pc 4 content in c-kit^+ BM (BM progenitors (c-kit^+); BM/ABE-8.1/2, BM fraction 0.90): 55 Mean fluorescence/cell
- Pc 4 content in c-kit^+ BM (BM progenitors (c-kit^+); BM/ABE-8.1/2, BM fraction 0.95): 62 Mean fluorescence/cell
- Pc 4 content in c-kit^+ BM (BM progenitors (c-kit^+); BM/BC3A, BM fraction 0.50): 48 Mean fluorescence/cell
- Pc 4 content in c-kit^+ BM (BM progenitors (c-kit^+); BM/BC3A, BM fraction 0.70): 53 Mean fluorescence/cell
- Pc 4 content in c-kit^+ BM (BM progenitors (c-kit^+); BM/BC3A, BM fraction 0.80): 61 Mean fluorescence/cell
- Pc 4 content in c-kit^+ BM (BM progenitors (c-kit^+); BM/BC3A, BM fraction 0.90): 68 Mean fluorescence/cell
- Pc 4 content in c-kit^+ BM (BM progenitors (c-kit^+); BM/BC3A, BM fraction 0.95): 64 Mean fluorescence/cell
- Pc 4 content in c-kit^+ BM (BM progenitors (c-kit^+); BM/L1210, BM fraction 0.50): 35 Mean fluorescence/cell
- Pc 4 content in c-kit^+ BM (BM progenitors (c-kit^+); BM/L1210, BM fraction 0.70): 43 Mean fluorescence/cell
- Pc 4 content in c-kit^+ BM (BM progenitors (c-kit^+); BM/L1210, BM fraction 0.80): 48 Mean fluorescence/cell
- Pc 4 content in c-kit^+ BM (BM progenitors (c-kit^+); BM/L1210, BM fraction 0.90): 54 Mean fluorescence/cell
- Pc 4 content in c-kit^+ BM (BM progenitors (c-kit^+); BM/L1210, BM fraction 0.95): 60 Mean fluorescence/cell
- Pc 4 content in c-kit^+ BM (BM progenitors (c-kit^+); BM/P815, BM fraction 0.50): 45 Mean fluorescence/cell
- Pc 4 content in c-kit^+ BM (BM progenitors (c-kit^+); BM/P815, BM fraction 0.70): 51 Mean fluorescence/cell
- Pc 4 content in c-kit^+ BM (BM progenitors (c-kit^+); BM/P815, BM fraction 0.80): 64 Mean fluorescence/cell
- Pc 4 content in c-kit^+ BM (BM progenitors (c-kit^+); BM/P815, BM fraction 0.90): 63 Mean fluorescence/cell
- Pc 4 content in c-kit^+ BM (BM progenitors (c-kit^+); BM/P815, BM fraction 0.95): 64 Mean fluorescence/cell
- Pc 4 content in c-kit^+ BM (BM progenitors (c-kit^+); BM/WEHI-3, BM fraction 0.50): 30 Mean fluorescence/cell
- Pc 4 content in c-kit^+ BM (BM progenitors (c-kit^+); BM/WEHI-3, BM fraction 0.70): 38 Mean fluorescence/cell
- Pc 4 content in c-kit^+ BM (BM progenitors (c-kit^+); BM/WEHI-3, BM fraction 0.80): 46 Mean fluorescence/cell
- Pc 4 content in c-kit^+ BM (BM progenitors (c-kit^+); BM/WEHI-3, BM fraction 0.90): 58 Mean fluorescence/cell
- Pc 4 content in c-kit^+ BM (BM progenitors (c-kit^+); BM/WEHI-3, BM fraction 0.95): 65 Mean fluorescence/cell
- Pc 4 uptake of BM progenitor fractions in mixtures versus BM alone (BM progenitors (c-kit^+); all mixtures (p>0.07)): lower, though not significantly
- Pc 4 content in cell line (L1210 cells; BM/L1210, BM fraction 0.50): 153 Mean fluorescence/cell
- Pc 4 content in cell line (L1210 cells; BM/L1210, BM fraction 0.70): 189 Mean fluorescence/cell
- Pc 4 content in cell line (L1210 cells; BM/L1210, BM fraction 0.80): 210 Mean fluorescence/cell
- Pc 4 content in cell line (L1210 cells; BM/L1210, BM fraction 0.90): 242 Mean fluorescence/cell
- Pc 4 content in cell line (L1210 cells; BM/L1210, BM fraction 0.95): 260 Mean fluorescence/cell
- Pc 4 uptake in mixtures versus cell line alone (L1210 cells; [1]): contained more Pc 4
- Pc 4 content in cell line (WEHI-3 cells; BM/WEHI-3, BM fraction 0.50): 106 Mean fluorescence/cell
- Pc 4 content in cell line (WEHI-3 cells; BM/WEHI-3, BM fraction 0.70): 140 Mean fluorescence/cell
- Pc 4 content in cell line (WEHI-3 cells; BM/WEHI-3, BM fraction 0.80): 164 Mean fluorescence/cell
- Pc 4 content in cell line (WEHI-3 cells; BM/WEHI-3, BM fraction 0.90): 204 Mean fluorescence/cell
- Pc 4 content in cell line (WEHI-3 cells; BM/WEHI-3, BM fraction 0.95): 229 Mean fluorescence/cell
- Pc 4 uptake in mixtures versus cell line alone (WEHI-3 cells; [1]): contained more Pc 4
- Pc 4 content in cell line (P815 cells; BM/P815, BM fraction 0.50): 205 Mean fluorescence/cell
- Pc 4 content in cell line (P815 cells; BM/P815, BM fraction 0.70): 241 Mean fluorescence/cell
- Pc 4 content in cell line (P815 cells; BM/P815, BM fraction 0.80): 270 Mean fluorescence/cell
- Pc 4 content in cell line (P815 cells; BM/P815, BM fraction 0.90): 312 Mean fluorescence/cell
- Pc 4 content in cell line (P815 cells; BM/P815, BM fraction 0.95): 335 Mean fluorescence/cell
- Pc 4 uptake in mixtures versus cell line alone (P815 cells; [1]): contained more Pc 4
